For one data set, the system named is Adrenal RL-251. Kind of data set: Imaging and tissue distribution, tumor model. Format: in vivo, SCID Mouse. The conditions noted are these: days 1 through 14.
In another data set the test system is Mammary SCC and ACC. Put plainly: Imaging and tissue distribution, tumor model; therapeutic responses at imaging doses. It is filed as in vivo, Apc^Min/+mouse. As to conditions: single intravenous injection, ^125I-labeled, imaging dose 15-20 μCi/20 g mouse. The text has this: (§1) During the course of mouse tumor uptake and retention studies with “imaging” doses (15-20 μCi/20 g mouse) of ^125I-labeled NM404, several apparent therapeutic responses have been observed (unpublished results). […] Some of these animals also lost all hair above larger mammary tumors at around 8 days after injection. Moreover, these mice also get intestinal tumors and usually suffer from intestinal bleeding resulting in severe anemia, which renders their feet white. […] Another compelling example of tumor regression is illustrated in FIG. 13. Two litter mates each received SCC1 and SCC6 xenografts in their left and right flanks, respectively. One mouse received a single injection of ^125I-NM404 (20 μCi). […] These coincidental findings were reconfirmed in two separate age-matched groups each involving more than 6 mice.

A further data set deals with SCC1 and 6. Kind of data set: Imaging and tissue distribution, tumor model; tumor regression. It is filed as in vivo.
Excerpt: as §1

The test system of data set [1] is PC3 human prostate cancer xenografts. Put plainly: Single-dose 125I-NM404 treatment, tumor volume, PC3 xenografts. As to conditions: single dose 250 μCi and 500 μCi, n=6 per group. Format: in vivo, SCID mice. The protocol: Tumor volumes were calculated using formula (width)^2×(length)/2 and expressed as mean±SEM, n=6 for each group. ⋄ Cold NM404, control;
(§2) The inventors have previously shown that ^125I-labeled PLE analogs such as NM404 are effective in targeting tumor therapies to tumor cells following single injection and fractionated dosing. For assessment of efficacy of ^125I-NM404 treatment, assessments of tumor volume were made until 10 weeks post-injection or until no animal in the control group was alive, whatever came first. Summarizing the results, control animals show rapidly growing tumors over the 10-week assessment period. See, FIGS. 2 and 3. […] Tumor volumes are stable and the same tumors appear “collapsed” (the tumor surface has caved in). Additionally, the hair above the tumors fell off confirming substantial accumulation of radioactivity in these tumors, FIG. 4. […] (See also, for example, U.S. patent application Ser. No. 11/671,403 hereby incorporated in its entirety for all purposes.)

The test system of data set [2] is A549 human non-small cell lung cancer xenografts. Put plainly: Single-dose 125I-NM404 treatment, tumor volume, A549 xenografts. It is filed as in vivo, SCID mice.
Excerpt: FIG. 3 illustrates antitumor effect of single-dose treatment with ^125I-125-NM404 at doses of 50 (∘), 150 (□), 250 (⋄) and 500 (∘) μCi in SCID mice bearing A549 human non-small cell lung cancer xenografts. In FIG. 3, control animals show rapidly growing tumors over the 10-week assessment period. […] Tumor volumes are stable and some tumors appear “collapsed” (the tumor surface has collapsed). Additionally, hair above the tumors fell off confirming substantial accumulation of radioactivity in these tumors.
FIG. 4 is an image showing one of the tumor-bearing animals treated with 250 μCi of ^125I-NM404 at 4 weeks following injection. The hair above the tumor has fallen off, apparently due to the significant accumulation of radioactivity in the tumor. […] The measurement method for determining outer tumor dimensions may have underestimated tumor volume response following dosing with ^125I-NM404;
as §2

The test system of a further data set is animal tumor models. Put plainly: Imaging and biodistribution across animal tumor models (general statements). From the text:
See, for example, U.S. patent application Ser. Nos. 10/906,687, 11/177,740, 11/316,620 and 11/382,645. Due to deficiencies in metabolic phospholipase enzymes in the membranes of malignant tumor cells, the prevailing hypothesis for this specificity is that phospholipid ether analogs become trapped exclusively in tumor cell membranes because of their inability to become metabolized and eliminated by the cancerous cell. Thus, the differential clearance rates of phospholipid ethers from normal cells versus neoplastic tumor cells are responsible for this specificity.
The reason for the retention of PLE and analogs in cancer cells remains unknown. Without being held to any particular theory, however, the prevailing hypothesis, is that radioiodinated PLE and APC analogs become trapped in tumor cell membranes because of their inability to be metabolized and eliminated. On the other hand, such lipid molecules are metabolized and cleared by normal tissues, including the liver.
These PLE analogs are specifically designed to incorporate aromatic radioiodine in order to render the molecule stable towards in vivo deiodination.

Some results are limits rather than exact numbers.

Results on one molecule are retold here after patent publication US8022235B2, “Compositions of phospholipid ether boronic acids and esters and methods for their synthesis and use” (Cellectar, Inc., priority 2007, dated 2011).

Turning to `C[N+](C)(C)CCOP(=O)([O-])OCCCCCCCCCCCCCCCCCCc1ccc([125I])cc1` [^125I-NM404], in the data set on Adrenal RL-251, the “tissue distribution, blood, spleen and kidney” value is “distribution in blood, spleen and kidney reduced”. Also, in the data set with Adrenal RL-251, the “tissue distribution, tumor” value is recorded as “accumulation in the tumor increased”. Besides, the tumor growth result with Mammary SCC and ACC was “tumor growth remains static”. Besides, the tumor regression result with SCC1 and 6 (by day 41 after injection (FIG. 12)) was “significantly reduced”; with SCC1 and 6 (single injection 20 μCi, SCC1 and SCC6 flank xenografts, untreated litter mate died 21 days later), “regressed significantly”. Further, the “health of treated animal” value in the data set with SCC1 and 6 (single injection 20 μCi) is recorded as “quite healthy 80 days after injection”. In data set [1], the “change in tumor volume / primary tumor growth” value is on record as “significant effects in inhibiting the progression of primary tumor growth”. The “tumor volume vs control” value in data set [2] (50 μCi dose group) is “did not show any difference when compared with control animals”; in data set [2] (150, 250 and 500 μCi dose groups), “substantial and prolonged treatment effect”; in data set [2] (single dose 50 and 150 μCi (FIG. 3 legend)), “did not show any difference when compared to control animals”; in data set [2] (single dose 250 and 500 μCi (FIG. 3 legend)), “substantial and prolonged treatment effect”. The “effect on the tumor (appearance)” value in data set [2] (250 μCi, 4 weeks following injection (FIG. 4)) is recorded as “causes central necrosis”. For the same molecule, the “dose dependence of effect on tumor volume” value in data set [2] (single dose 50-500 μCi) is recorded as “dose-linear effect”. The “time over which tumors could be imaged” value with animal tumor models (mammary and prostate tumors in mice) is over 60 days. In addition, the “duration of tumor retention” value in the data set on animal tumor models (mice, post-injection) was 20 to 60 days.
